The text below walks through data of patent publication US20220273617A1, “ANTI-CANCER, ANTI-INFLAMMATORY AND IMMUNOMODULATORY ACTIVITY OF R-CARVEDILOL AND METHODS OF USE” (priority 2021, published 2022).

Data set [1] is described as follows: Ex vivo permeation across rat skin, Franz diffusion cells. It counts as in vitro ADME. Particulars: control formulation: PBS pH 7.4 with 40% v/v PEG 400. The procedure: Instead of nanoparticle-based topical delivery, the present inventors have explored other methods of skin delivery of drugs. They investigated the effects of natural penetration enhancers on the ex vivo permeation of carvedilol across rat skin. […] The drug formulations containing carvedilol or R-carvedilol (200 μg/mL) (1 mL) was loaded on Franz diffusion cells using excised rat dorsal skin (with hair removed). […] D-limonene is isolated from orange peel, and is a cheap and safe option to delivery carvedilol (same for R-carvedilol) for skin cancer prevention. D-limonene is present in many skin commercial products such as perfumes and essential oils. Therefore, this invention provides another novel approach of making skin targeting formulation for both carvedilol and R-carvedilol. This approach of making skin formulation is not only safe but also easier to scale up to industry level for making large amount.

In data set [2] the test system is UV induced skin carcinogenesis. The data set is described as follows: Chronic UV induced skin carcinogenesis model. It counts as in vivo, mice.
Data set [3] deals with UV-induced immunosuppression. The data set is described as follows: UV-induced suppression of contact hypersensitivity (CHS) to DNFB. The format is in vivo, SKH-1 hairless mice. The note with it: single dose i.p. 2 h before UV 224 mJ/cm^2; carvedilol 1 and 10 mg/kg, R-carvedilol 10 mg/kg. The method, then:
Mice were treated with NS398, CAR or R-CAR (L: 1 mg/kg; H: 10 mg/kg) i.p. 2 hr before UV exposure (224 mJ/cm^2). 24 h after, mice were sensitized with DNFB on back. After 7 days, the right ears were challenged with DNFB. 24 h after, 5 mm punch biopsies were obtained from both ears and weighed. The data are the mean±SE difference in ear biopsy weights (right-left) from n=5 mice (male). *: P<0.05; **: P<0.01.
The data listed are the mean±SE difference in ear biopsy weights (Right-Left) from n=5 mice (male). *: P<0.05; **:P<0.01.
Immunosuppression induced by UV radiation is commonly investigated using the contact hypersensitivity (CHS) response to contact allergens such as the hapten dinitrofluorobenzene (DNFB). […] Thus, carvedilol's skin cancer preventive activity may be partly attributed to its inhibitory effects on UV-induced immunosuppression.
The mice were pretreated with single dose of R-carvedilol (10 mg/kg, i.p.) two hours before UV radiation, and were subject to UV exposure. […] Thus, R-carvedilol, although not a β-blocker, similarly reverses UV-induced immunosuppression.
CHS assay was used to evaluate the effects of a topical delivery system of carvedilol developed by us, named “T-CAR”, on UV-induced immunosuppression. […]

Data set [4] can be described thus: Systolic blood pressure of mice, noninvasive tail-cuff system. The format is in vivo. The note with it: drinking water, 32 mg/kg/day, 2 weeks, male SKH-1 mice. The procedure: SKH-1 mice were given racemic carvedilol or R-carvedilol in drinking water for two weeks (32 mg/kg/day). Blood pressure was examined in mice utilizing a Kent CODATM noninvasive tail-cuff system.

“Also recorded” adds a separate entry of the source.

On to `COc1ccccc1OCCNC[C@@H](O)COc1cccc2[nH]c3ccccc3c12` [R-carvedilol], for which the skin permeation entry in data set [1] was “minimal”. The skin tumor development result in data set [2] (topical 10 μM in acetone 30 min before UV) is “strongly inhibited skin tumor development”. For the same compound, the “delay in tumor formation compared to UV only controls” value in data set [2] (topical, chronic UV) is 5 week. Moreover, the “UV-induced CHS suppression” value in data set [3] is given as “reversed UV-induced suppression of CHS; also recorded: significantly reversed UV-induced CHS suppression”. For the same compound, in data set [4], the “mean systolic blood pressure” value was “did not alter blood pressure”.
